Values after ≈ are worked out from the molar mass of the structure shown. Active and inactive are the calls of the source. The calls are words filed in the database; no cut-off is given here.
Columns and labels:
[1] = Cmax in Sprague-Dawley rat at 3 mg/kg, po; type: ADME, organism-based; set-up: route oral, dose 3 mg/kg; conditions: in vivo
[2] = system: OCI-Ly3; experiment: Antitumor activity against human OCILY3 cells xenografted in SCID-bg mouse assessed as tumor regression level at 30 mg/kg, po BID for 53 days; type: functional; conditions: time 53 day
[3] = Intrinsic clearance in human liver microsomes; type: ADME, Microsome; conditions: read-out: CLH
[4] = Apparent volume of distribution at steady state in Sprague-Dawley rat at 1 mg/kg, iv; type: ADME, organism-based; conditions: in vivo, read-out: Vdss(app)
[5] = molecular target: Cytochrome P450 3A4 (Homo sapiens, UniProt P08684); experiment: Inhibition of CYP3A4 (unknown origin)
[6] = system: BJAB; experiment: Growth inhibition of human BJAB cells grown in soft agar at 19.5 to 10000 nM; type: functional, cell-based; conditions: dose nM 19.5-10000
[7] = molecular target: T1, Caspase-3 (Homo sapiens, UniProt P42574); experiment: Inhibition of caspase-3 (unknown origin)
T1 sequence (P42574 whole entry): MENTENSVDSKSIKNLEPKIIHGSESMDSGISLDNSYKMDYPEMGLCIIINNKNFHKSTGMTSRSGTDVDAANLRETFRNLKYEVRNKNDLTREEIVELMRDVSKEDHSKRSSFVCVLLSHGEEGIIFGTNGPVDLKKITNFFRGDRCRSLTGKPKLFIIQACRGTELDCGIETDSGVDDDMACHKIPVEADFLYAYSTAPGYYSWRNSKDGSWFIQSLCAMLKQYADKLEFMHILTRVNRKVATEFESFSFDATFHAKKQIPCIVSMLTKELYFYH

[8] = Cmax in Balb/C mouse at 3 mg/kg, po; type: ADME, organism-based; set-up: route oral, dose 3 mg/kg; conditions: in vivo
[9] = molecular target: Cytochrome P450 2D6 (Homo sapiens, UniProt P10635); experiment: Inhibition of CYP2D6 (unknown origin)
[10] = molecular target: Cytochrome P450 2C9 (Homo sapiens, UniProt P11712); experiment: Inhibition of CYP2C9 (unknown origin)
[11] = Oral bioavailability in Sprague-Dawley rat at 3 mg/kg; type: ADME, organism-based; conditions: in vivo
[12] = Toxicity in SCID-bg mouse xenografted with human OCILY3 cells assessed as effect on body weight at 30 mg/kg, po BID for 49 days; type: organism-based; conditions: in vivo, 1176 h, time 49 day
[13] = Lipophilicity, logP of the compound; conditions: octanol/water
[14] = Clearance in Sprague-Dawley rat at 1 mg/kg, iv; type: ADME, organism-based; conditions: in vivo
[15] = AUC (0 to 24 hrs) in Sprague-Dawley rat at 3 mg/kg, po; type: ADME, organism-based; set-up: time < 24 hr, route oral, dose 3 mg/kg; conditions: in vivo
[16] = Cmax in blood of OFA rat model of T-cell dependent B cell response at 1 mg/kg, po QD for 4 days starting 2 days prior to immunization and measured after 24 hrs; type: ADME, organism-based; set-up: route oral, dose 1 mg/kg, time 5 day
[17] = system: OCI-Ly3; experiment: Inhibition of ROS production in human OCILY3 cells
[18] = Cmax in blood of OFA rat model of T-cell dependent B cell response at 3 mg/kg, po QD for 4 days starting 2 days prior to immunization and measured after 3 hrs; type: ADME, organism-based; set-up: route oral, dose 3 mg/kg, time 4 day
[19] = system: OCI-Ly3; experiment: Growth inhibition of human OCILY3 cells grown in soft agar
[20] = Terminal half life in Sprague-Dawley rat at 1 mg/kg, iv; type: ADME, organism-based; conditions: in vivo, read-out: beta t1/2 (converted)
[21] = molecular target: Cathepsin B (Homo sapiens, UniProt P07858); experiment: Inhibition of cathepsin B (unknown origin)
[22] = system: OCI-Ly3; experiment: Antitumor activity against human OCILY3 cells xenografted in SCID-bg mouse assessed as inhibition of tumor growth by measuring T/C ratio at 30 mg/kg, po QD for 49 days; type: functional; conditions: time 49 day
[23] = Cmax in blood of OFA rat model of T-cell dependent B cell response at 0.3 mg/kg, po QD for 4 days starting 2 days prior to immunization and measured after 24 hrs; type: ADME, organism-based; set-up: route oral, dose 0.3 mg/kg, time 5 day
[24] = Protein binding in rat plasma; type: ADME, cell-free; conditions: read-out: PPB (converted)
[25] = system: OCI-Ly3; experiment: Antitumor activity against human OCILY3 cells xenografted in SCID-bg mouse assessed as tumor regression level at 30 mg/kg, po BID for 49 days; type: functional; conditions: time 49 day
[26] = Protein binding in human plasma; type: ADME, cell-free; conditions: read-out: PPB (converted)
[27] = Cmax in blood of OFA rat model of T-cell dependent B cell response at 0.3 mg/kg, po QD for 4 days starting 2 days prior to immunization and measured after 3 hrs; type: ADME, organism-based; set-up: route oral, time 4 day, dose 0.3 mg/kg
[28] = molecular target: T2, Cathepsin K (Homo sapiens, UniProt P43235); experiment: Inhibition of cathepsin K (unknown origin)
T2 sequence (P43235 whole entry): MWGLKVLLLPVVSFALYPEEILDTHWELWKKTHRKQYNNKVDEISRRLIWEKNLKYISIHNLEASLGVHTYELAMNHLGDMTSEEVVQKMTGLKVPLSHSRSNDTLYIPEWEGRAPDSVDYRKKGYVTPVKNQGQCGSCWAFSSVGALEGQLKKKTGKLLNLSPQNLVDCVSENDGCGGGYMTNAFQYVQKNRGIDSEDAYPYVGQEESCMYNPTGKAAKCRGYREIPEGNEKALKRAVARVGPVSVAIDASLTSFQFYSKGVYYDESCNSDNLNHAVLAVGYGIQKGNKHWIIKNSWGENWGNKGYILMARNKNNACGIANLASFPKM

[29] = Terminal half life in Balb/C mouse at 1 mg/kg, iv; type: ADME, organism-based; conditions: in vivo, read-out: beta t1/2 (converted)
[30] = Oral bioavailability in Balb/C mouse at 3 mg/kg; type: ADME, organism-based; conditions: in vivo
[31] = system: BJAB; experiment: Growth inhibition of human BJAB cells grown in soft agar
[32] = Cmax in blood of OFA rat model of T-cell dependent B cell response at 1 mg/kg, po QD for 4 days starting 2 days prior to immunization and measured after 3 hrs; type: ADME, organism-based; set-up: route oral, dose 1 mg/kg, time 4 day
[33] = Intrinsic clearance in mouse liver microsomes; type: ADME, Microsome; conditions: read-out: CLH
[34] = Apparent volume of distribution at steady state in Balb/C mouse at 1 mg/kg, iv; type: ADME, organism-based; conditions: in vivo, read-out: Vdss(app)
[35] = molecular target: Dipeptidyl peptidase 1 (Homo sapiens, UniProt P53634); experiment: Inhibition of cathepsin C (unknown origin)
[36] = Clearance in Balb/C mouse at 1 mg/kg, iv; type: ADME, organism-based; conditions: in vivo
[37] = Toxicity in SCID-bg mouse xenografted with human OCILY3 cells assessed as effect on body weight at 30 mg/kg, po QD for 49 days; type: organism-based; conditions: in vivo, 1176 h, time 49 day
[38] = system: TMD8; experiment: Inhibition of IL-10 production in tumor of CD79B-mutant containing human TMD8 cells xenografted in SCID-bg mouse at 30 mg/kg, po administered as single dose; type: functional, organism-based
[39] = Intrinsic clearance in rat liver microsomes; type: ADME, Microsome; conditions: read-out: CLH
[40] = system: OCI-Ly3; experiment: Growth inhibition of human OCILY3 cells grown in soft agar at 19.5 to 10000 nM; type: functional, cell-based; conditions: dose nM 19.5-10000
[41] = AUC (0 to 24 hrs) in Balb/C mouse at 3 mg/kg, po; type: ADME, organism-based; set-up: time < 24 hr, route oral, dose 3 mg/kg; conditions: in vivo
[42] = Thermodynamic solubility of the compound
[43] = Cmax in blood of OFA rat model of T-cell dependent B cell response at 3 mg/kg, po QD for 4 days starting 2 days prior to immunization and measured after 24 hrs; type: ADME, organism-based; set-up: route oral, dose 3 mg/kg, time 5 day
[44] = system: Rattus norvegicus; experiment: Anti-autoimmune disease activity in OFA rat model of T-cell dependent B cell response assessed as reduction in SRBC-induced IgM producing B cells at 3 mg/kg, po QD for 4 days starting 2 days prior to immunization by ex vivo plaque forming assay relative to control; type: functional; conditions: 96 h, read-out: INH, time 4 day
[45] = molecular target: Cathepsin S (Homo sapiens, UniProt P25774); experiment: Inhibition of cathepsin S (unknown origin)
[46] = molecular target: Voltage-gated inwardly rectifying potassium channel KCNH2 (Homo sapiens, UniProt Q12809); experiment: Inhibition of human ERG by dofetilide binding assay
[47] = molecular target: Procathepsin L (Homo sapiens, UniProt P07711); experiment: Inhibition of cathepsin L (unknown origin)
[48] = system: OCI-Ly3; experiment: Antitumor activity against human OCILY3 cells xenografted in SCID-bg mouse assessed as inhibition of tumor growth by measuring T/C ratio at 30 mg/kg, po QD for 53 days; type: functional, organism-based; conditions: time 53.0 day
[49] = system: Rattus norvegicus; experiment: Anti-autoimmune disease activity in OFA rat model of T-cell dependent B cell response assessed as reduction in SRBC-induced IgM producing B cells at 0.3 mg/kg, po QD for 4 days starting 2 days prior to immunization by ex vivo plaque forming assay relative to control; type: functional; conditions: 96 h, read-out: INH, time 4 day
[50] = Apparent permeability from apical to basolateral side in human Caco-2 cells
[51] = system: Rattus norvegicus; experiment: Anti-autoimmune disease activity in OFA rat model of T-cell dependent B cell response assessed as reduction in SRBC-induced IgM producing B cells dosed orally once daily for 4 days starting 2 days prior to immunization by ex vivo plaque forming assay relative to control; type: functional

Cytochrome P450 2D6, sequence (P10635 whole entry): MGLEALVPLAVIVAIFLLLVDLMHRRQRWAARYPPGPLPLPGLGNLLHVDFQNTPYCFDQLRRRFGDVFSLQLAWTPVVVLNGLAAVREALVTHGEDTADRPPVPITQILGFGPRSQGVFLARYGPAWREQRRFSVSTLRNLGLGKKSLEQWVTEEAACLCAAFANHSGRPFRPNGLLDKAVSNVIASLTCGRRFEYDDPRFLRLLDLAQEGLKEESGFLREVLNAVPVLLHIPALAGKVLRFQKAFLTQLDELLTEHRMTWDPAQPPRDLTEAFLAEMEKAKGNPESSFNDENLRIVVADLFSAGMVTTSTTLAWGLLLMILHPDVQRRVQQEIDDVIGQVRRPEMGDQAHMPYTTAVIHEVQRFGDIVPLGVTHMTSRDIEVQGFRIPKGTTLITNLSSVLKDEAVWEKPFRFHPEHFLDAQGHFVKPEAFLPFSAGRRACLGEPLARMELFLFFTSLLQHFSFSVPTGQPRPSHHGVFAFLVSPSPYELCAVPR
Cathepsin S, sequence (P25774 whole entry): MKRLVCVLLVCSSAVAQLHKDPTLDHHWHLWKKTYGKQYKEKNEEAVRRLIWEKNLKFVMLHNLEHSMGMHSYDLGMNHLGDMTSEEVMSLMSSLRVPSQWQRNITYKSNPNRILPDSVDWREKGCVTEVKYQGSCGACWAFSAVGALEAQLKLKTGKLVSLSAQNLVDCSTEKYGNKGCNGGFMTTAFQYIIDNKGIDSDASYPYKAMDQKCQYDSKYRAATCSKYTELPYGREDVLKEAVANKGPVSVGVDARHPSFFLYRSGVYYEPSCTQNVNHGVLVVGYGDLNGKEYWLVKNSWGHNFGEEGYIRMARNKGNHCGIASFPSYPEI
Cytochrome P450 2C9, sequence (P11712 whole entry): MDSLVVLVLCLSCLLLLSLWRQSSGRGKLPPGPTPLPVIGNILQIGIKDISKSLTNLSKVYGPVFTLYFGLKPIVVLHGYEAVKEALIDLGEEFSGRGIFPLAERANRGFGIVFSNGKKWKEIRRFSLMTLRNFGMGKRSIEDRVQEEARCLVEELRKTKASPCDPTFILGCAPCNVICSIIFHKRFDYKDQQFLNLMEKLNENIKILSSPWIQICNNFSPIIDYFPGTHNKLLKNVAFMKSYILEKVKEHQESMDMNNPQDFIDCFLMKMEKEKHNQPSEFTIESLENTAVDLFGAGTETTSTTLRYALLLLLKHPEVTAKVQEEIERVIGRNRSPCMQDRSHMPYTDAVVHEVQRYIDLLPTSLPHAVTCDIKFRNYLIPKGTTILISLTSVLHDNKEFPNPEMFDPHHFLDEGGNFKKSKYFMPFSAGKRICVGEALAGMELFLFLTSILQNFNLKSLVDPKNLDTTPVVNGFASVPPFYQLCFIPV
Dipeptidyl peptidase 1, sequence (P53634 25-134 limits assumed): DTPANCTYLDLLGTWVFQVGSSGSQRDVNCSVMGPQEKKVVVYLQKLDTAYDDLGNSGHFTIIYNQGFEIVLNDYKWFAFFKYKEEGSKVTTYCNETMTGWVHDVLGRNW
Dipeptidyl peptidase 1, sequence (P53634 231-394 limits assumed): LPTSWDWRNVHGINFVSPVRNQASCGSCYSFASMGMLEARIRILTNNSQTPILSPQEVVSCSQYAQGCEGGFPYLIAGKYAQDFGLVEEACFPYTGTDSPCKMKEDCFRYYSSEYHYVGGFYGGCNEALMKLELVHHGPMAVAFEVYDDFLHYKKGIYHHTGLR
Dipeptidyl peptidase 1, sequence (P53634 395-463 limits assumed): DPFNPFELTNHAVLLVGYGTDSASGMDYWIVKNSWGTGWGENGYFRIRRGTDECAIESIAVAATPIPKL
Cytochrome P450 3A4, sequence (P08684 whole entry): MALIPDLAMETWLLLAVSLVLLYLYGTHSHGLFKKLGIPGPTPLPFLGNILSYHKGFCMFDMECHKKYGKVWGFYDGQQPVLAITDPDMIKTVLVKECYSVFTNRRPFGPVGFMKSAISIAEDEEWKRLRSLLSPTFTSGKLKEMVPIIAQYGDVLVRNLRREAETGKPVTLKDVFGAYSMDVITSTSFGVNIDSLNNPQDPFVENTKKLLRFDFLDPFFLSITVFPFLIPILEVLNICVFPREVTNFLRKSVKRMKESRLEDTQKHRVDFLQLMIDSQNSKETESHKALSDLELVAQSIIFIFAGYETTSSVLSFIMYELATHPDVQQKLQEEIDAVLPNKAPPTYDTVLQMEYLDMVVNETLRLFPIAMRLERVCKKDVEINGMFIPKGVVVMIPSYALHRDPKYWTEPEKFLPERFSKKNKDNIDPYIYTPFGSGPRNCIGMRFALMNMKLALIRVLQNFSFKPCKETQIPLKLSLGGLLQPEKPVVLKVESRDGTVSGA
Procathepsin L, sequence (P07711 whole entry): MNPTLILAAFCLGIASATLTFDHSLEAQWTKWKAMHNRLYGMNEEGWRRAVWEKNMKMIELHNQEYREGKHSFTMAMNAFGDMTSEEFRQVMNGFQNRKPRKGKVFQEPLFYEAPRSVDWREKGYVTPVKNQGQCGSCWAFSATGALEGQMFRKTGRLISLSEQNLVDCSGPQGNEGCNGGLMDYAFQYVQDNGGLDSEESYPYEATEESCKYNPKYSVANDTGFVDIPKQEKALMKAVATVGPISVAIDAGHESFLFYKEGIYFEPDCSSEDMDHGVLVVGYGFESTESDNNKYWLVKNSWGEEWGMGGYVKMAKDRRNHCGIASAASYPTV
Voltage-gated inwardly rectifying potassium channel KCNH2, sequence (Q12809 whole entry): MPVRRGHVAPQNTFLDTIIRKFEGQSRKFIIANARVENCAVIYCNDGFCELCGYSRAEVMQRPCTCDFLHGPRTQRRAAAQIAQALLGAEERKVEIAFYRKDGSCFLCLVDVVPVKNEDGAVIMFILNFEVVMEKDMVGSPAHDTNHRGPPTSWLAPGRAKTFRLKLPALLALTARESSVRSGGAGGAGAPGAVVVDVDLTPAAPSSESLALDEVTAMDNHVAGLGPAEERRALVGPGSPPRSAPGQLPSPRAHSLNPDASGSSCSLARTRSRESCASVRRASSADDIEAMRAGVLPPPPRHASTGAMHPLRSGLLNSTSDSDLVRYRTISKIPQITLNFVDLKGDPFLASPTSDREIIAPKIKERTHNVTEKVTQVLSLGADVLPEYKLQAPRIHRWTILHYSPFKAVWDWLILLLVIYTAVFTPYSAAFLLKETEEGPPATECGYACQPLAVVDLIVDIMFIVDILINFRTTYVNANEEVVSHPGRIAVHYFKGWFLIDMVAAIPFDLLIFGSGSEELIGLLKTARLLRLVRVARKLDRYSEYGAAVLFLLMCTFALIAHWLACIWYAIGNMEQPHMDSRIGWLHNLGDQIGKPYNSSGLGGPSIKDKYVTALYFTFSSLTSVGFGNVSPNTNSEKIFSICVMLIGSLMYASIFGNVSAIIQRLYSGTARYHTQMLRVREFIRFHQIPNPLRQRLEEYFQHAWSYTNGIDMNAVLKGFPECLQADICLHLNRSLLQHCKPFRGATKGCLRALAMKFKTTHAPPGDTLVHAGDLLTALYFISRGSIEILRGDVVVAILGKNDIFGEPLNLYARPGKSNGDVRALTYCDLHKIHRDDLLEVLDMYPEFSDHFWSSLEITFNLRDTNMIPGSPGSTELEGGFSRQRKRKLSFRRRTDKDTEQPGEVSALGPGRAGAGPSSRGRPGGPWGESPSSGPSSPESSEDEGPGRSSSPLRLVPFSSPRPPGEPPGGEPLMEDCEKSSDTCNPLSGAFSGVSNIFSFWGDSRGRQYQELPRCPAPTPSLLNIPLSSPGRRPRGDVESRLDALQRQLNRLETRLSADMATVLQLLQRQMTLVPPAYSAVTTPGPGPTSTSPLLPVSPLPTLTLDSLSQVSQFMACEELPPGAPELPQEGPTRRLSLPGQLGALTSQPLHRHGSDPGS

`CO[C@@H](C)c1c(NC(=O)Nc2cnc(-n3nccn3)c(Cl)c2)cnc2cc(Cl)nn12` showed a Cmax [1] of 700 nM, an Activity [2] of -50% and a microsomal CLint [3] of under 25 µL/min/mg. For the same molecule, the Vd [4] was 4.2 L/kg, the IC50 [5] was over 20 µM and the “growth inhibition (GI)” value [6] was “inactive”. It also gave an IC50 [7] of over 100 µM, a Cmax [8] of 1700 nM and an IC50 [9] of over 20 µM. For the same molecule, the IC50 [10] was over 20 µM, the bioavailability [11] was 79% and the Activity [12] was “Non-Toxic”. It also gave a logP [13] of 3.4, a clearance [14] of 7 mL/min/kg and an AUC [15] of 13.2 µM·h. It also gave a Cmax [16] of 260 nM, an IC50 [17] of 0.03 µM and a Cmax [18] of 2300 nM. For the same molecule, the IC50 [19] was 0.24 µM, the half-life [20] was 8.5 h and the IC50 [21] was over 100 µM. For the same molecule, the T/C [22] was 32%, the Cmax [23] was 50 nM and the fraction unbound [24] was 0.03. The Activity [25] was -20%, the fraction unbound [26] was 0.017 and the Cmax [27] was 130 nM. For the same molecule, the IC50 [28] was over 100 µM, the half-life [29] was 3.7 h and the bioavailability [30] was 83%. For the same molecule, the IC50 [31] was over 10 µM, the Cmax [32] was 670 nM and the microsomal CLint [33] was under 25 µL/min/mg. The Vd [34] was 1.4 L/kg, the IC50 [35] was over 100 µM and the clearance [36] was 5 mL/min/kg. The Activity [37] was “Non-Toxic”, the inhibition [38] was “Active” and the microsomal CLint [39] was under 25 µL/min/mg. For the same molecule, the “growth inhibition (GI)” value [40] was “Dose-dependent effect”, the AUC [41] was 20.1 µM·h and the solubility thermodynamic [42] was 4 µg/mL (≈ 8.92 µM). It also gave a Cmax [43] of 1000 nM, an inhibition in vivo at 3 mg/kg [44] of 97% and an IC50 [45] of over 100 µM. For the same molecule, the IC50 [46] was over 30 µM, the IC50 [47] was over 100 µM and the Activity [48] was “Active”. It also gave an inhibition in vivo at 0.3 mg/kg [49] of 58%, a Papp A→B [50] of 12.8 ×10⁻⁶ cm/s and an ED50 ([51]; po, 96 h, time 4 day) of 0.3 mg/kg. The Activity ([51]; time 4.0 day) was “Dose-dependent effect”.

Reference: ChEMBL document CHEMBL4699655, “Optimization of the In Vivo Potency of Pyrazolopyrimidine MALT1 Protease Inhibitors by Reducing Metabolism and Increasing Potency in Whole Blood” (J Med Chem, 2020)
